These results are taken from patent publication US20220177459A1, “AROMATIC AMINE COMPOUND AND USE THEREOF IN PREPARATION OF AR AND BRD4 DUAL INHIBITORS AND REGULATORS” (HINOVA PHARMACEUTICALS INC., priority 2019, published 2022).

The first test has as its system LNCaP/AR cells. The test can be described thus: Inhibition of proliferation of prostate cancer cells LNCaP/AR (CCK-8). It is filed as cell-based. The settings on record: 144 h, 6 days culture, CCK-8, OD 450 nm, read-out: IC50 (μM), inhibitory activity on prostate cancer cell LNCap/AR. How it is done: 1. Biological determination of the inhibitory effect on the proliferation of prostate cancer cells LNCaP/AR
Cell culture medium: RIPM1640 media, 10% FBS, 1% Pen Strep;
(§1) 1) LNCaP/AR cells were subcultured in cell culture medium, and the cells in good growth condition were seeded in a 96-well plate, with 80 μL per well (i.e. 1000 cells per well), and cultured overnight in a 37° C., 5% CO2 cell incubator.
2) The drug was prepared with dimethylsulfoxide (DMSO) as a 10 mM stock solution.
(§2) Immediately before use, the stock solution was diluted 3 times with DMSO, and then diluted as a 3-fold gradient to obtain 9 concentration gradients. Then, the compound of each concentration was diluted 200 times with the culture media (to ensure that the DMSO concentration in the culture system was 0.1%), and two multiple holes were set for each concentration. 20 μL of the diluted compound was added to the cell culture well (with a final concentration of 10 μM, 3.3 μM, 1.1 μM . . . ), and then shook gently to mix. In addition, three negative control wells with only cells and three blank control wells with only culture medium were included (6 wells being each added with DMSO diluted 200 times with 20 μL culture medium).
(§3) 1) After culturing for 6 days, 10 μL of CCK-8 was added to each well and continued culturing for 1 hour in a 37° C., 5% CO2 cell incubator.
(§4) 2) The absorbance (OD value) was measured at 450 nm using a multifunctional microplate reader.
(§5) 3) The data were analyzed by the Dose-response-inhibition equation in the software GraphPad Prism5, and the IC50 value was obtained.
In the case of `CCN(c1ccc(-c2c[nH]nn2)cc1)c1cc(-c2c(C)noc2C)ccc1C` [Compound 131], the IC50 was 0.88 µM.
Regarding `CCN(c1ccc(-c2cc(C)[nH]n2)cc1)c1cc(-c2c(C)noc2C)ccc1C` [Compound 97, 5-(3,5-dimethylisoxazol-4-)-N-ethyl-2-methyl-N-(4-(5-methyl-1H-pyrazol-3-yl)phenyl)aniline], the IC50 turned out to be 3.23 µM.
Regarding `CCN(c1ccc(-n2cncn2)cc1)c1cc(-c2c(C)noc2C)ccc1C` [Compound 35], the IC50 worked out at 1.2 µM.
On to `Cc1ccc(-c2c(C)noc2C)cc1Nc1ccc(-c2c(C)noc2C)cc1` [Compound 119], for which the IC50 stood at 0.17 µM.
For the compound `CCN(c1ccc([N+](=O)[O-])cc1)c1cc(-c2c(C)noc2C)ccc1C` [Compound 99], the IC50 worked out at 0.4 µM.
The same measure, in the same setting: the figure for `CCN(c1ccc(-c2cnc[nH]2)cc1)c1cc(-c2c(C)noc2C)ccc1C` [Compound 107] is 3.67 µM; for `CCN(c1ccc2[nH]ncc2c1)c1cc(-c2c(C)noc2C)ccc1C` [Compound 133] it is 8.74 µM; for `CCN(c1ccc(C#N)c(Cl)c1)c1cc(-c2c(C)nn(C(C)C)c2C)ccc1C` [Compound 4] it is 1.4 µM.
As to `CCN(c1ccc(-n2ccnc2)cc1)c1cc(-c2c(C)n[nH]c2C)ccc1C` [Compound 21], the IC50 was found to be 3.98 µM.
Same read-out and setting: the figure for `CCN(c1ccc2cn[nH]c2c1)c1cc(-c2c(C)noc2C)ccc1C` [Compound 114] is 0.89 µM; for `CCN(c1ccc(N)cc1)c1cc(-c2c(C)noc2C)ccc1C` [Compound 100, N-1-(5-(3,5-dimethylisoxazol-4-yl)-2-methylphenyl) N1-ethylbenzene-1,4-diamine] it is 0.7 µM.
Same read-out and setting: the figure for `CCN(c1ccc(C#N)c(Cl)c1)c1cc(-c2[nH]ncc2C)ccc1C` [Compound 7] is 2.19 µM; for `CCN(c1ccc(OC(F)(F)F)cc1)c1cc(-c2c(C)noc2C)ccc1C` [Compound 109] it is 4.46 µM; for `CCN(c1ccc(-c2ccon2)cc1)c1cc(-c2c(C)noc2C)ccc1C` [Compound 134] it is 0.89 µM.
Same read-out and setting: the figure for `CCN(c1ccc(-c2ncon2)cc1)c1cc(-c2c(C)noc2C)ccc1C` [Compound 105, N-(4-(1,2,4-oxadiazole-3-yl)phenyl)-5-(3,5-dimethylisoxazol-4-yl)-N-ethyl-2-methylaniline] is 0.71 µM; for `Cc1ccc(-c2c(C)n[nH]c2C)cc1N(CCCCCO)c1ccc(C#N)c(Cl)c1` [Compound 6] it is 3.67 µM.
With `CCN(c1ccc(-c2cncn2C)cc1)c1cc(-c2c(C)noc2C)ccc1C` [Compound 106], the IC50 was determined as 0.7 µM.
Same read-out and setting: the figure for `CCN(c1ccc(C#N)c(C(F)(F)F)c1)c1cc(-c2c(C)noc2C)ccc1C` [Compound 16] is 1.66 µM; for `CCN(c1ccc(-n2ccnc2)cc1)c1cc(-c2c(C)noc2C)ccc1C` [Compound 25] it is 1.25 µM; for `CCN(c1ccc(-c2cn(C)nn2)cc1)c1cc(-c2c(C)noc2C)ccc1C` [Compound 102, 5-(3,5-dimethylisoxazol-4-yl)-N-ethyl-2-methyl-N-(4-(1-methyl-1H-1,2,3-triazol-4-yl)phenyl)aniline] it is 1.45 µM.
Still for that read-out and setting: the figure for `CCN(c1ccc(S(C)(=O)=O)cc1)c1cc(-c2c(C)noc2C)ccc1C` [Compound 113] is 2.53 µM.
On the same count and under the same terms, the figure for `CCN(c1ccc2nc[nH]c2c1)c1cc(-c2c(C)noc2C)ccc1C` [Compound 115, N-(5-(3,5-dimethylisoxazol-4-yl)-2-methylphenyl) N-ethyl-1H-benzo[d]imidazole-6-amine] is 1.3 µM; for `CCN(c1ccc(-c2cn[nH]c2C)cc1)c1cc(-c2c(C)noc2C)ccc1C` [Compound 126] it is 0.99 µM.
With `Cc1ccc(-c2c(C)noc2C)cc1N(CCO)c1ccc(-n2ccnc2)c(Br)c1` [Compound 58], the IC50 is 2.32 µM.
Take `CCN(c1ccc(-c2csc(N)n2)cc1)c1cc(-c2c(C)noc2C)ccc1C` [Compound 98, 4-(4-((5-(3,5-dimethylisoxazol-4-)-2-methylphenyl)(ethyl)amino)phenyl)thiazol-2-amine]: the IC50 was found to be 4.77 µM.
On to `CCN(c1ccc(C#N)c(Cl)c1)c1cc(-c2c(C)nn(CC)c2C)ccc1C` [Compound 3], for which the IC50 came to 1.4 µM.
Take `CCN(c1ccc(-n2ccnc2)cc1)c1cc2c(C)noc2cc1C` [Compound 47]: the IC50 was 3.3 µM.
The same measure, in the same setting: the figure for `CCN(c1ccc(C2(C#N)CCC2)cc1)c1cc(-c2c(C)noc2C)ccc1C` [Compound 112] is 1.86 µM; for `CCN(c1ccc(-n2cnc(C)c2)c(Br)c1)c1cc(-c2c(C)noc2C)ccc1C` [Compound 57] it is 2.38 µM; for `CCN(c1ccc(-n2ccnc2)cc1)c1cc2onc(C)c2cc1C` [Compound 48] it is 3.7 µM.
Take `CCN(c1ccc(-n2cnc(Cl)c2)c(Br)c1)c1cc(-c2c(C)noc2C)ccc1C` [Compound 43]: the IC50 came to 2.79 µM.
Regarding `CCN(c1ccc(-c2nnc[nH]2)cc1)c1cc(-c2c(C)noc2C)ccc1C` [Compound 130], the IC50 is 1.16 µM.
The same measure, in the same setting: the figure for `CCCn1nc(C)c(-c2ccc(C)c(N(CC)c3ccc(C#N)c(Cl)c3)c2)c1C` [Compound 5] is 1.45 µM; for `CCN(c1ccc(-n2ccnc2)cc1)c1cc(-c2c(C)nn(CCO)c2C)ccc1C` [Compound 23] it is 6.42 µM; for `CCN(c1ccc(C(N)=O)cc1)c1cc(-c2c(C)noc2C)ccc1C` [Compound 123] it is 3.03 µM.
On the same count and under the same terms, the figure for `CCN(c1ccc(-c2csnn2)cc1)c1cc(-c2c(C)noc2C)ccc1C` [Compound 108, N-(4-(1,2,3-thiazol-4-yl)phenyl)-5-(3,5-dimethylisoxazol-4-yl)-N-ethyl-2-methylaniline] is 0.76 µM; for `CCN(c1ccc(-c2nnco2)cc1)c1cc(-c2c(C)noc2C)ccc1C` [Compound 129] it is 1.13 µM.
Regarding `CCN(c1ccc2ncn(C)c2c1)c1cc(-c2c(C)noc2C)ccc1C` [Compound 132], the IC50 came out at 2.54 µM.
The same measure, in the same setting: the figure for `CCN(c1ccc(C#N)c(Cl)c1)c1cc(-c2c(C)n[nH]c2C)ccc1C` [Compound 1] is 0.33 µM.
Still for that read-out and setting: the figure for `CCN(c1ccc(-n2ccnc2)c(Br)c1)c1cc(-c2c(C)noc2C)cnc1C` [Compound 67] is 2.03 µM.

The next test relates to 22RV1 cells. Description: Inhibition of proliferation of other prostate cancer cells: 22RV1. Format: cell-based. The settings on record: Homo sapiens, same method as LNCaP/AR. On the procedure: as §1, §2, §3, §4, §5
2. Biological determination of the inhibitory effect on the proliferation of other prostate cancer cells
The inhibitory activity of the compound according to the present invention on other drug-resistant prostate cancer cells was measured by the same method as described above, in which VCaP and 22RV1 cells were commercially available.
`CCN(c1ccc(-c2ccon2)cc1)c1cc(-c2c(C)noc2C)ccc1C` [Compound 134] showed an IC50 of 6.06 µM.
The same measure, in the same setting: the figure for `CCN(c1ccc(OC)cc1)c1cc(-c2c(C)noc2C)ccc1C` [Compound 101] is 0.07 µM; for `CCN(c1ccc(-c2cn[nH]c2C)cc1)c1cc(-c2c(C)noc2C)ccc1C` [Compound 126] it is 3.17 µM.
Take `Cc1ccc(-c2c(C)noc2C)cc1Nc1ccc(Br)cc1` [Compound 120]: the IC50 came to 0.63 µM.
The compound `CCN(c1ccc(C(N)=O)cc1)c1cc(-c2c(C)noc2C)ccc1C` [Compound 123] displayed an IC50 of 5.64 µM.
As for `CCN(c1ccc(-c2nnco2)cc1)c1cc(-c2c(C)noc2C)ccc1C` [Compound 129], the IC50 came to 9.79 µM.
